This note sets out measurements from ChEMBL document CHEMBL4038292 (Bioorg Med Chem Lett, 2017).

The species entered for one data set is Rattus norvegicus. In words: Selectivity ratio of Ki for displacement of [3H]DPDPE from delta-opioid receptor in Wistar rat membrane to Ki for displacement of [3H]DAMGO from mu-opioid receptor in Wistar rat brain membrane. The class given is cell membranes. In general terms: In a radioligand displacement assay an active substance lowers the binding of a labelled ligand.

A further data set has as its target Mu-type opioid receptor (Rattus norvegicus, UniProt P33535). In words: Displacement of [3H]DAMGO from mu-opioid receptor in Wistar rat brain membrane after 1 hr by microbeta scintillation counting method. The class given is cell membranes.
In data set [1] the target is Delta-type opioid receptor (Rattus norvegicus, UniProt P33533). Description: Displacement of [3H]DPDPE from delta-opioid receptor in Wistar rat brain membrane after 3 hrs by microbeta scintillation counting method. Format: cell membranes.
The nature of data set [2]: Half life in Kunming mouse brain homogenate at 500 uM by RP-HPLC method. Format: ADME, tissue-based.
Data set [3] can be described thus: Half life in Kunming mouse plasma at 500 uM by RP-HPLC method. Format: ADME, cell-free.
Data set [4] concerns Mus musculus. In words: Antinociceptive activity in mouse model of thermal-induced nociception assessed as increase in latency to tail withdrawal at 5 mg/kg, sc measured up to 50 mins by tail flick test. Format: functional, organism-based. For orientation: Thermal pain tests record how soon the animal reacts.
Data set [5] can be described thus: Effect on human sperm motility at 10^-5 mol/L measured immediately post dose by Makler counting chamber method (reference value: 70 +/- 4.2%). The conditions noted are these: 10 µM. Format: ADME, cell-based.
Data set [6] is described as follows: Effect on human sperm motility at 10^-6 mol/L measured immediately post dose by Makler counting chamber method (reference value: 70 +/- 4.2%). The class given is ADME, cell-based. The conditions noted are these: 1 µM.
A short description of data set [7]: Effect on human sperm motility at 10^-7 mol/L measured immediately post dose by Makler counting chamber method (reference value: 70 +/- 4.2%). The class given is ADME, cell-based. As to conditions: 0.1 µM.
The nature of data set [8]: Effect on human sperm motility at 10^-5 mol/L measured at 10 mins post dose by Makler counting chamber method (reference value: 69 +/- 4.7%). As to conditions: 10 µM. The class given is ADME, cell-based.
Data set [9] is described as follows: Effect on human sperm motility at 10^-6 mol/L measured at 10 mins post dose by Makler counting chamber method (reference value: 69 +/- 4.7%). The conditions noted are these: 1 µM. The class given is ADME, cell-based.
Data set [10] is described as follows: Effect on human sperm motility at 10^-7 mol/L measured at 10 mins post dose by Makler counting chamber method (reference value: 69 +/- 4.7%). Format: ADME, cell-based. The conditions noted are these: 0.1 µM.
Data set [11] in a line: Effect on human sperm motility at 10^-5 mol/L measured at 30 mins post dose by Makler counting chamber method (reference value: 66.9 +/- 4.6%). The class given is ADME, cell-based. The conditions noted are these: 0.5 h, 10 µM.
Data set [12] in a line: Effect on human sperm motility at 10^-6 mol/L measured at 30 mins post dose by Makler counting chamber method (reference value: 66.9 +/- 4.6%). Format: ADME, cell-based. The conditions noted are these: 0.5 h, 1 µM.
The nature of data set [13]: Effect on human sperm motility at 10^-7 mol/L measured at 30 mins post dose by Makler counting chamber method (reference value: 66.9 +/- 4.6%). The class given is ADME, cell-based. The conditions noted are these: 0.5 h, 0.1 µM.
A short description of data set [14]: Effect on human sperm motility at 10^-5 mol/L measured at 60 mins post dose by Makler counting chamber method (reference value: 64.8 +/- 6.6%). The class given is ADME, cell-based. As to conditions: 1 h, 10 µM.
Data set [15] in a line: Effect on human sperm motility at 10^-6 mol/L measured at 60 mins post dose by Makler counting chamber method (reference value: 64.8 +/- 6.6%). As to conditions: 1 h, 1 µM. Format: ADME, cell-based.
The nature of data set [16]: Effect on human sperm motility at 10^-7 mol/L measured at 60 mins post dose by Makler counting chamber method (reference value: 64.8 +/- 6.6%). The class given is ADME, cell-based. As to conditions: 1 h, 0.1 µM.
The nature of data set [17]: Effect on human sperm motility at 10^-5 mol/L measured at 90 mins post dose by Makler counting chamber method (reference value: 62.1 +/- 5.7%). As to conditions: 1.5 h, 10 µM. The class given is ADME, cell-based.
A short description of data set [18]: Effect on human sperm motility at 10^-6 mol/L measured at 90 mins post dose by Makler counting chamber method (reference value: 62.1 +/- 5.7%). The class given is ADME, cell-based. The conditions noted are these: 1.5 h, 1 µM.
Data set [19] is described as follows: Effect on human sperm motility at 10^-7 mol/L measured at 90 mins post dose by Makler counting chamber method (reference value: 62.1 +/- 5.7%). Format: ADME, cell-based. The conditions noted are these: 1.5 h, 0.1 µM.
Data set [20] deals with Mus musculus. Description: Antinociceptive activity in mouse model of thermal-induced nociception assessed as increase in latency to tail withdrawal at 10 nmol/kg, icv measured up to 50 mins by tail flick test. Format: functional.
The test system of data set [21] is Mus musculus. Description: Antinociceptive activity in mouse model of thermal-induced nociception assessed as increase in latency to tail withdrawal at 10 nmol/kg, icv measured up to 60 mins by tail flick test. The class given is functional.
Data set [22] concerns Mus musculus. In words: Antinociceptive activity in mouse model of thermal-induced nociception assessed as increase in latency to tail withdrawal at 10 nmol/kg, icv measured 10 to 80 mins post dose by tail flick test relative to control. The class given is functional.
The test system of data set [23] is Mus musculus. In words: Antinociceptive activity in mouse model of thermal-induced nociception assessed as increase in latency to tail withdrawal at 2.5 nmol/kg, icv measured up to 60 mins by tail flick test. Format: functional.
The subject of data set [24] is Mus musculus. In words: Antinociceptive activity in mouse model of thermal-induced nociception assessed as increase in latency to tail withdrawal at 10 mg/kg, sc measured up to 90 mins by tail flick test. The class given is functional, organism-based.
Data set [25] concerns Mus musculus. Description: Antinociceptive activity in mouse model of thermal-induced nociception assessed as increase in latency to tail withdrawal at 5 mg/kg, sc measured up to 90 mins by tail flick test. Format: functional, organism-based.

The structures appear in SMILES notation. Active and inactive are the calls of the source. No cut-off for these calls is given here.

Sequence of Delta-type opioid receptor (P33533 whole entry): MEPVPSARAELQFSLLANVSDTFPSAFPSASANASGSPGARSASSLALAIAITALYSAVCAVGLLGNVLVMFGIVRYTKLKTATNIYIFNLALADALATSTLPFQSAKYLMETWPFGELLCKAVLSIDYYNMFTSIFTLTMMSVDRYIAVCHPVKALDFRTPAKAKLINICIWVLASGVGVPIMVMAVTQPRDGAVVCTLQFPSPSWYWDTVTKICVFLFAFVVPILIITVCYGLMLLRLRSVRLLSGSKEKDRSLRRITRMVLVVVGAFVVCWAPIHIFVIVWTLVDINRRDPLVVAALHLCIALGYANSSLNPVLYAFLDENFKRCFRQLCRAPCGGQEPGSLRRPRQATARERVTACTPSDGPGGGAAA
Sequence of Mu-type opioid receptor (P33535 whole entry): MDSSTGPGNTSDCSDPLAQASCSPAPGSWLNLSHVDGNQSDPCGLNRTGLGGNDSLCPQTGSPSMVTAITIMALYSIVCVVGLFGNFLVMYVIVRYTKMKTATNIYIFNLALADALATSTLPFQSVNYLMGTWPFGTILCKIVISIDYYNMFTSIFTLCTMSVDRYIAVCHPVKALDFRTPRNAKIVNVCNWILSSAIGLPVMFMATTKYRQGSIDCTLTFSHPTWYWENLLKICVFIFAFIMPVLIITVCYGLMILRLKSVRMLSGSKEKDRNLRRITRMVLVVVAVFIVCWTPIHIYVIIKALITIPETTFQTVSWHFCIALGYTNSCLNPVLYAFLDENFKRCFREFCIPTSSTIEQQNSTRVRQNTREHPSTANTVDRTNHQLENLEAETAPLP

Regarding `N=C(N)N[C@@H](Cc1ccc(O)cc1)C(=O)N1CCC[C@@H]1C(=O)NCC(=O)N[C@@H](Cc1ccccc1)C(N)=O`, the Ratio Ki in the data set listed under Rattus norvegicus is 18.4. Besides, the Ki at Mu-type opioid receptor was 247 nM; in data set [1], 4550 nM. Further, the half-life at 500 µM came out at 4.94 h in data set [2] and 3.68 h in data set [3].
Turning to `CN1CC[C@]23c4c5ccc(O)c4O[C@H]2[C@@H](O)C=C[C@H]3[C@H]1C5` [MORPHINE], in the data set with Mus musculus [4], the result was Active. In addition, the Activity in [5] was found to be 62.7%; in data set [6], 65.6%; in [7], 69.4%; in data set [8], 60.2%; in [9] it was 62.7%; in [10], 70.8%. Moreover, the Activity is given as 58.8% in data set [11]; 63% in data set [12]; 67% in data set [13]; 57.6% in data set [14]; 60.7% in data set [15]; 69% in [16]. Also, the Activity in data set [17] is 55.7%; in data set [18], 59.3%; in [19], 57.7%.
For `C[C@@H](NC(=O)[C@@H](N)Cc1ccc(O)cc1)C(=O)NCC(=O)N[C@@H](Cc1ccc(Cl)cc1)C(N)=O`, the inhibition constant (Ki) was 1.24 nM at Mu-type opioid receptor and above 1000 nM in [1]. Also, the half-life at 500 µM amounted to 5.29 h in data set [2] and 3.99 h in data set [3]. Further, the outcome in the data set with Mus musculus [20] and with Mus musculus [4] was Active.
`C[C@@H](NC(=O)[C@@H](N)Cc1ccc(O)cc1)C(=O)NCC(=O)N[C@@H](Cc1ccccc1)C(N)=O`: the Ratio Ki in the data set listed under Rattus norvegicus worked out at 1800. Moreover, the Ki at Mu-type opioid receptor was 2.11 nM; in data set [1], 3800 nM. In addition, the half-life at 500 µM in [2] is 4.33 h; in data set [3] it was 4.38 h. Also, the result in the data set on Mus musculus [20] and in the data set on Mus musculus [4] was Active.
In the case of `NC(=O)[C@H](Cc1ccccc1)NC(=O)[C@H](Cc1c[nH]c2ccccc12)NC(=O)[C@@H]1CCCN1C(=O)[C@@H](N)Cc1ccc(O)cc1` [ENDOMORPHIN-1], the half-life at 500 µM was 0.392 h in data set [2] and 0.101 h in data set [3]. In the data set with Mus musculus [21], the result was Active.
Regarding `C[C@@H](NC(=O)[C@H](Cc1ccc(O)cc1)NC(=N)N)C(=O)NCC(=O)N[C@@H](Cc1ccc(Cl)cc1)C(N)=O`, in the data set filed under Rattus norvegicus, the Ratio Ki amounted to 288. Also, the inhibition constant (Ki) turned out to be 0.35 nM on Mu-type opioid receptor and 101 nM in data set [1]. Further, the results for the half-life at 500 µM in data set [2] and in data set [3] were 6.52 h and 3.91 h, respectively. Further, the MPE with Mus musculus [22] is reported as 90 - 100%. Also, the result with Mus musculus [23], in the data set on Mus musculus [24] and in the data set on Mus musculus [25] was Active. In addition, the Activity came out at 60.1% in data set [5]; 69.5% in [6]; 62.7% in [7]; 59.3% in [8]; 64.6% in data set [9]; 58.8% in [10]. Also, the Activity in data set [11] came out at 56.1%; in data set [12], 64.6%; in [13], 59%; in data set [14], 55.3%; in data set [15], 72%; in data set [16], 55.2%. Moreover, the Activity in [17] is reported as 53.5%; in [18], 78.3%; in data set [19] it was 53.2%.
Take `C[C@@H](NC(=O)[C@H](Cc1ccc(O)cc1)NC(=N)N)C(=O)NCC(=O)N[C@@H](Cc1ccccc1)C(N)=O`: the Ratio Ki in the data set filed under Rattus norvegicus amounted to 2000. Also, the inhibition constant (Ki) stood at 0.42 nM at Mu-type opioid receptor and 840 nM in data set [1]. The values for the half-life at 500 µM in data set [2] and in data set [3] were 6.07 h and 3.87 h, respectively. For the same molecule, the MPE in the data set on Mus musculus [22] is 90 - 100%. In addition, the outcome in the data set on Mus musculus [23], in the data set with Mus musculus [24] and in the data set on Mus musculus [25] was Active. Further, the Activity was 62.1% in data set [5]; 64.5% in data set [6]; 66.7% in data set [7]; 60.3% in data set [8]; 60.6% in data set [9]; 68.5% in data set [10]. Moreover, the Activity came to 59.1% in [11]; 59.6% in [12]; 62.8% in data set [13]; 59% in data set [14]; 58% in data set [15]; 58.6% in data set [16]. The Activity in [17] is reported as 56.5%; in [18] it was 57.3%; in [19], 53.2%.

Usually Ki stands for the equilibrium dissociation constant of an inhibitor or competing ligand from its target. High values mean a looser hold on the target, low ones a stronger hold on the target. As usually defined, the half-life is how long it takes for the measured level to halve.
